Data taken from patent EP1121151B1, “ANTI-INFLAMMATORY ALPHA2, BETA1 INTEGRIN-RELATED SUBSTANCES OR ANTIBODIES” (Lindbom, Lennart, priority 1998, dated 2006).

System: PMN
Assay: Intravital time lapse videomicroscopy of PAF-stimulated PMN locomotion in rat mesenteric tissue in vivo
Conditions: rat mesentery, PAF 10^-7 M
Procedure: Intravital time lapse videomicroscopy of PMN locomotion in vivo. PMN locomotion in rat mesenteric tissue was studied through use of intravital time lapse videomicroscopy according to the protocol previously described in detail (Werr et al., supra). In brief, Wistar rats (200-250 g) were anesthetized with equal parts of fluanison/fentanyl (10/0.2 mg/ml; Hypnorm; Janssen-Cilag Ltd., Saunderton, UK) and midazolam (5 mg/ml; Dormicum; Hoffman-La Roche, Basel, Switzerland) diluted 1:1 with sterile water (2 ml/kg i.m.). Body temperature was maintained at 37° C by a heating pad connected to a rectal thermistor. After laparotomy, a segment of the ileum was exposed on a heated transparent pedestal to allow microscopic observation of the mesenteric microvasculature (Orthoplan microscope equipped with water immersion lens SW×25, NA 0.60; Leitz, Wetzlar, Germany). The microscopic image was televised and recorded on time lapse video (at 1/7 of normal speed). Analysis of leukocyte migration in the mesenteric tissue was made off line and the migration path of individual leukocytes was tracked with a digital image analyzer. […]

ACRGDGWMCG
effect on PMN migration at ten-fold higher concentrations (ten-fold higher concentrations than 500 µM, some experiments): did not yield different effects
effect on PMN migration (topical administration, peptide 500 µM): without effect
